Experimental data from patent US20140194506A1, “Use of Potassium Piperonyl Pentadienoate for Lowering Blood Lipid” (INNER MONGOLIA UNIVERSITY, priority 2011, published 2014).
Values joined by “and” are separate entries in the source; they are usually repeats but may differ in a detail not shown here. Equal values may be shown once.

Tests used:
[1] = tested on: high lipid mode white rats; assay: Prophylactic blood lipid lowering in high lipid feed white rats (Example 2); assay type: in vivo, Wistar male white rats
Description: High lipid feed formula: cholesterol 3%, lard 10%, sodium cholate 0.5%, basal feed: […] (formula: flour 17.14%, rice flour 8.57%, maize […], bran 21%, fish flour 1.71%, dairy salt 0.857%, vitamin 0.085%, bean material 17.14%).
60 Wistar White male rats of 150±10 g of body weight were fed with common standard feed for 5 days, and then divided into 6 groups randomly. Each group included 10 rats. Group I was a blank group, where the rats were fed with common standard feed. Group II was a high lipid feed mode control group. Group III was a Simvastatin 10 mg/kg group. Group IV was a GB-O group. Group V was a GB-H group. Group VI was a GB-K group. High lipid feed mode control group were fed with high lipid feed together with distilled water. Groups III, IV, V, and VI were fed with high lipid feed together with required simvastatin, GB-O, GB-H, and GB-K suspensions (formulated by grinding with 0.5% sodium […] CMC-Na) respectively. The dosing amount was 0.046 mmol/kg, and the amount of high lipid feed was 20 g per day for each rat. The grouping and the dosing amount for each group can be found in table 1.
(§1) The body weights of white rats were determined and recorded every day. The rats in each group were dosed basing on its body weight by feeding for 14 days at 22° C. of room temperature and 40-50% of relative humidity. On the 14th day, after fasting and freely receiving water for 16 hours, its blood was sampled from aorta, placed for 30 min to blood coagulate, and centrifugated for 15 min at 3000 r/min to separate serum. The values of serum total cholesterol (TC), and triglyceride (TG) were determined on an automatic analyzer using enzymatic colorimetry, the value of high density lipoprotein cholesterol (HDL) was determined using a phosphotungstic acid-Mg precipitation method, and the value of low density lipoprotein cholesterol (LDL) was determined using the polyvinyl sulfate precipitation method.
All data were treated statistically, and were presented as means±standard deviations (x±s). The significance of difference was judged by T test. The calculation of p value was obtained by comparing the high lipid mode group with the blank control group, and comparing other test drug groups with the high lipid mode group.
The reaction temperature was 37° C. The cholesterol ester in serum was first hydrolyzed into free cholesterol (FC) and fatty acid with cholesterol ester hydrolase (CEH). Then, all FC in serum was oxidized into ch-4-en-3-one and H2O2 with cholesterol oxidase (COD). The resulting H2O2 was reacted with 4-aminoantipyrine (4-AAP) and 4-chlorophenol in the presence of peroxidase (POD) (Trinder reaction), to yield red quinine imine, which was calorimetrically tested at a 500 nm wavelength.
The reaction temperature was 37° C. The triglyceride ire serum was first hydrolyzed into glycerol and fatty acid with lipoprotein lipase (LPL). The resulting glycerol was reacted with ATP in the presence of glycerol kinase (GK), to produce glycerol-3-phosphate and ADP. The resulting glycerol-3-phosphate was oxidized into dihydroxyacetone phosphate and H2O2 with oxygen in the presence of glycerol phosphate oxidase (GPO). The resulting H2O2 was reacted with 4-aminoantipyrine (4-AAP) and 4-chlorophenol in the presence of peroxidase (POD) (Trinder reaction), to yield red quinine imine, which was colorimetrically determined at a 500 nm wavelength.
The LDL in serum was precipitated using PVS. The serum TC and the Ch in the resulting supernatant were determined using the enzymatic methods described hereinabove, and the LDL-C was calculated by subtracting the Ch from the serum TC. The polyethylene glycol monoether (PEGME) was added in a suitable amount in order to facilitate the precipitation of LDL. […]

[2] = tested on: high lipid mode white rats; assay: Therapeutic blood lipid lowering in hyperlipoidemia mode white rats (Example 3); assay type: in vivo, Wistar male white rats
Description: High lipid feed formula: cholesterol 3%, lard 10%, sodium cholate 0.5%, basal feed: 86.5% (formula: flour 17.14%, rice flour 8.57%, maize 17.14%, bran 21%, fish flour 1.71%, dairy salt 0.857%, vitamin 0.085%, bean material 17.14%).
72 Wistar white male rats of 170±10 g of body weight were divided into 6 groups randomly and numbered. Each group included 12 rats. The rats were fed with common standard feed under experimental conditions and observed for 7 days, and its blood was sampled from tail for testing serum total cholesterol (TC). […] From the 8th day, the group I was set as a blank group, and was fed with common standard feed. Other groups were fed with high lipid feed for 8 days in a row, and the blood was sampled from tail on the next day for testing TC. […] The rats then were divided into 5 groups randomly (see table 12) according to TC levels. Each group included 10 rats (10 rats who were unsuccessful blood lipid modes were discarded). The rats were ted with high lipid teed continuously. Group was a high lipid feed mode control group. Group III was a Simvastatin 10 mg/kg group. Group IV was a GB-O group. Group V was a GB-H group. Group VI was a GB-K group. The high lipid feed mode control group was fed with high lipid feed together with distilled water. Groups III, IV, V, and VI were fed with high lipid feed together with required simvastatin, GB-O, GB-H, and GB-K suspensions (formulated by grinding with 0.5% sodium carboxymethycellulose CMC-Na) respectively. The dosing amount was 0.046 mmol/kg, and the amount of high lipid feed was 20 g per day for each rat. The grouping and the dosing amount for each group can be found in table 13.
as §1, with “rats for” for “rats in”, “dosed basing,” for “dosed basing”, “hours, the” for “hours, its”, “coagulate,” for “coagulate, and”, “using a” for “using the”
All data were treated statistically, and are presented as means standard deviations (x±s). The significance of difference was judged by T test. The calculation of p value was obtained by comparing the high lipid mode group with the blank control group, and comparing other test drug groups with the high lipid mode group.
The reaction temperature was 37° C. The cholesterol ester in serum was first hydrolyzed into free cholesterol (FC) and fatty acid with cholesterol ester hydrolase (CEH.) Then, all FC in serum was oxidized into ch-4-en-3-one and H2O2) with cholesterol oxidase (COD). The resulting H2O2, was reacted with 4-aminoantipyrine (4-AAP) and 4-chlorophenol in the presence of peroxidase (POD) (Trinder reaction), to yield red quinine imine, which was colarimetrically tested at 500 nm wavelength.
The reaction temperature was 37° C. The triglyceride in serum was first hydrolyzed into glycerol and fatty acid with lipoprotein lipase (LPL). The resulting glycerol was reacted with ATP in the presence of glycerol kinase (GK), to produce glycerol-3-phosphate and ADP. The resulting glycerol-3-phosphate was oxidized into dihydroxyacetone phosphate and H2O2 with oxygen in the presence of glycerol phosphate oxidase (GPO). […]

[3] = group mean n=10, 15th day after administration
[4] = rats No. 1-10, 0.046 mmol/kg (Simvastatin 10 mg/kg), 15th day after administration

Compound: CCC(C)(C)C(=O)O[C@H]1C[C@@H](C)C=C2C=C[C@H](C)[C@H](CC[C@@H]3C[C@@H](O)CC(=O)O3)[C@H]21 [Simvastatin]
- Total cholesterol value ([1]; Table 6, mean ± standard deviation, n=10): 13.88 ± 3.27
- Triglyceride value ([1]; Table 7, mean ± standard deviation, n=10): 1.22 ± 0.1841 mmol/L
- Low density lipoprotein cholesterol ([1]; Table 8, mean ± standard deviation, n=10): 4.223 ± 0.9989 mmol/L
- High density lipoprotein cholesterol ([1]; Table 9, mean ± standard deviation, n=10): 0.331 ± 0.0767 mmol/L
- serum total cholesterol (TC) contents, Mean ([1]; group mean n=10, 0.046 mmol/kg (Simvastatin 10 mg/kg), 15th day after administration): 13.88 mmol/L
- serum high density lipoprotein cholesterol (HDL) contents, Mean [1, 3]: 0.33 mmol/L
- serum low density lipoprotein cholesterol (LDL) contents, Mean [1, 3]: 4.22 mmol/L
- serum triglyceride (TG) contents, Mean [1, 3]: 1.22 mmol/L
- serum high density lipoprotein cholesterol (HDL) contents, individual rats [1, 4]: 0.26 mmol/L and 0.29 mmol/L and 0.31 mmol/L (2×) and 0.47 mmol/L and 0.39 mmol/L and 0.24 mmol/L and 0.33 mmol/L and 0.43 mmol/L and 0.28 mmol/L
- serum low density lipoprotein cholesterol (LDL) contents, individual rats [1, 4]: 5.81 mmol/L and 4.98 mmol/L and 5.32 mmol/L and 3.73 mmol/L and 5.14 mmol/L and 3.99 mmol/L and 3.33 mmol/L and 3.37 mmol/L and 3.63 mmol/L and 2.93 mmol/L
- serum triglyceride (TG) contents, individual rats [1, 4]: 1.12 mmol/L and 1.53 mmol/L and 0.93 mmol/L and 1.36 mmol/L and 1.26 mmol/L and 1.00 mmol/L and 1.19 mmol/L and 1.23 mmol/L and 1.31 mmol/L and 1.28 mmol/L
- serum total cholesterol (TC) contents, individual rats ([1]; rats No. 1-10, high lipid feed plus drug 14 days, 0.046 mmol/kg (Simvastatin 10 mg/kg), 15th day after administration): 19.21 mmol/L and 14.11 mmol/L and 12.51 mmol/L and 11.11 mmol/L and 9.19 mmol/L and 11.57 mmol/L and 10.31 mmol/L and 15.62 mmol/L and 13.60 mmol/L and 18.06 mmol/L
- Total cholesterol value ([2]; Table 18, mean ± standard deviation, n=10): 9.59 ± 1.50
- Triglyceride value ([2]; Table 19, mean ± standard deviation, n=10): 2.62 ± 0.54 mmol/L
- Low density lipoprotein cholesterol ([2]; Table 20, mean ± standard deviation, n=10): 2.90 ± 0.67 mmol/L
- High density lipoprotein cholesterol ([2]; Table 21, mean ± standard deviation, n=10): 0.75 ± 0.20 mmol/L
- serum high density lipoprotein cholesterol (HDL) contents, Mean [2, 3]: 0.75 mmol/L
- serum low density lipoprotein cholesterol (LDL) contents, Mean [2, 3]: 2.90 mmol/L
- serum total cholesterol (TC) contents, Mean [2, 3]: 9.59 mmol/L
- serum triglyceride (TG) contents, Mean [2, 3]: 2.62 mmol/L
- serum high density lipoprotein cholesterol (HDL) contents, individual rats [2, 4]: 1.11 mmol/L and 0.93 mmol/L and 0.58 mmol/L and 0.67 mmol/L and 0.37 mmol/L and 0.81 mmol/L and 0.77 mmol/L and 0.92 mmol/L and 0.66 mmol/L and 0.72 mmol/L
- serum low density lipoprotein cholesterol (LDL) contents, individual rats [2, 4]: 2.51 mmol/L and 2.84 mmol/L and 2.67 mmol/L and 3.38 mmol/L and 1.97 mmol/L and 2.37 mmol/L and 3.71 mmol/L and 4.12 mmol/L and 3.12 mmol/L and 2.36 mmol/L
- serum triglyceride (TG) contents, individual rats [2, 4]: 1.95 mmol/L and 3.67 mmol/L and 2.38 mmol/L and 2.08 mmol/L and 2.27 mmol/L and 3.27 mmol/L and 2.67 mmol/L and 2.36 mmol/L and 2.68 mmol/L and 2.96 mmol/L
- serum total cholesterol (TC) contents, individual rats ([2]; rats No. 1-10, hyperlipoidemia mode, drug 14 days, 0.046 mmol/kg (Simvastatin 10 mg/kg), 15th day after administration): 7.61 mmol/L and 9.38 mmol/L and 8.81 mmol/L and 8.39 mmol/L and 12.67 mmol/L and 10.34 mmol/L and 9.37 mmol/L (2×) and 8.61 mmol/L and 11.34 mmol/L
